Molecules are shown by their SMILES. A value given as a limit tells only on which side of the number the result lay.

In series [1] the test system is Salmonella Pathogenicity Island-1 (SPI-1) genes. As to the kind of experiment: Expression of Salmonella Pathogenicity Island-1 genes. The format is cell-based, Salmonella Typhimurium.
For series [2], the system named is TNF. As to the kind of experiment: TNF production in BMDCs, intracellular staining, flow cytometry. The format is cell-based, mouse. The settings on record: 1 mM TDMM 24 hours, LPS (1 ug/ml) 4 hours. Here is the method: Intracellular staining was performed to assess TNF production.
Intracellular staining was performed to assess TNF (FIG. 3A) and IL-12 (FIG. 3B) production.
Briefly, bone marrow was harvested from femurs of mice and cultured for 7 days in the presence of DC-skewing cytokines, GM-CSF and IL-4. […] The pro-inflammatory cytokines, IL-6 and IL-12, were specifically queried. […] Immune cells communicate largely through the production of soluble factors including cytokines, and DCs detect these signals and determine their effector functions accordingly.
The inventors performed a series of assays where bone marrow derived macrophages (BMDMs), bone marrow derived dendritic cells (BMDCs), and splenic dendritic cells (splenic DCs), were exposed to a series of TDMMs, including indole, indole-3-acetate (I3AT), 5-hydroxyindole (5HI), and indole-3-pyruvate (I3P), as well as indole-3-carbinol (I3C; a plant derived compound) to be used for a positive control (1 mM for 24 hours). The BMDMs and BMDCs were stimulated with LPS for 4 hours and assayed at day 7 for expression of various pro-inflammatory cytokines. In a similar assay, the BMDMs and BMDCs were stimulated with LPS or CpG, respectively, for 15 minutes and assayed for pAKT and pERK signaling, which is a reflection of pro-inflammatory response.

The subject of series [3] is TNF. As to the kind of experiment: TNF production in splenic CD11c+ DCs ex vivo. Type of series: cell-based, mouse. As to conditions: indole overnight. An excerpt: To evaluate the possible role of AhR in mediating the anti-inflammatory effects of indole on DCs, AhR-deficient mice were acquired and analyzed splenic and bone marrow-derived DCs. Splenocytes from AhR-deficient and WT mice were first treated overnight with indole, followed by stimulation with heat-killed S. typhimurium.

The test system of another series is naïve CD4+CD25− T cells. As to the kind of experiment: T cell activation in the presence of BMDC supernatant: Treg induction. Type of series: cell-based, mouse. As to conditions: T cells on α-CD3/α-CD28 plates, 72 hours.
A further series deals with DSS colitis. As to the kind of experiment: BMDC transfer in murine DSS colitis model. The format is in vivo, mouse. As to conditions: mice transferred i.p. with BMDCs conditioned with indole, 5% DSS day 7-14, endpoint day 20. Here is the method:
FIGS. 21A and 21B graphically illustrate that the in vivo transfer of indole-conditioned DCs prevented shortening of colon in a murine DSS colitis model. BMDCs were cultured with indole, RA, or DMF from day 3. Two million BMDCs were transferred via i.p. injection to WT C57BL/6 mice on days 0, 6, and 9 of the experiment. Mice received 5% dextran sulfate sodium (DSS) ad libitum in their drinking water from day 7 through day 14. Mice were euthanized on day 20 and colons were immediately removed and measured for length (FIG. 21A) and weight (FIG. 21B). n=4 mice/group. *p<0.05 by one-way ANOVA followed by Dunnett's post-test, comparing to unmanipulated control colons.
A hallmark pathological sign of colitis is shortening of the colon, mediated by abscesses forming in the intestinal crypts that disrupt the mucosal architecture and are later replaced by scar tissue. […] Shortening of the colon is an established indicator of colitis pathology in the murine model of DSS colitis.
BMDCs were cultured with indole, RA, or DMF from day 3 as described above. BMDCs were washed, counted, and resuspended in sterile PBS (Ca—Mg—) for transfer to WT C57BL/6 recipients. Two million BMDCs were transferred via i.p. injection on days 0, 6, and 9 of the experiment. Mice received 5% dextran sulfate sodium (DSS, MW=36,000-50,000; MP Biomedicals) ad libitum in their drinking water from day 7 through day 14. […]

The test system of series [4] is TNF. As to the kind of experiment: TNF production in splenic macrophages ex vivo. As to conditions: indole overnight. The format is cell-based, mouse. The protocol:
Similarly, the ex vivo indole conditioning of splenocytes was repeated with tissues from AhR-deficient and wild-type mice and analyzed TNF production. […] Importantly, in this set of experiments splenocytes were stimulated with LPS, heat-killed S. typhimurium, and CpG. […] Specifically, BMDMs were generated from WT or AhR-KO mice and treated with indole (1 mM) or DMF control for 18 hours. BMDMs were then stimulated with IL-6 (10 ng/ml) for the given times and stained for phospho-Stat3, which was detected by flow cytometry.

The subject of a further series is Stat3. Put plainly: IL-6 induced pSTAT3 signaling in splenic DCs. Type of series: cell-based, mouse. The settings on record: splenic DCs, 1 mM TDMM 24 hours, IL-6 (10 ng/ml) 30 minutes. Here is the method: Briefly, flow cytometric analysis was performed on splenic DCs conditioned with the indicated TDMMs for 24 hours and then subsequently stimulated with 10 ng/ml IL-6 for 30 minutes.

Another series has as its system DCs. As to the kind of experiment: DC viability: lactate dehydrogenase release and propidium iodide uptake. The settings on record: versus solvent controls.

Take `c1ccc2[nH]ccc2c1` [Indole, indole]: in series [1], the “expression of four SPI-1 genes involved in invasion” value is recorded as “decrease in expression”. In addition, in series [1] (indole together with short chain fatty acids), the “effect of short chain fatty acids on attenuation of SPI-1 gene expression” value is recorded as “synergistically enhanced”. The TNF result with TNF [2] is reported as “↓↓”. Moreover, the “inhibition of TNF production” value was at least 2 fold in the series on TNF [3] (splenic CD11c+ DCs, LPS or heat-killed S. typhimurium); 2 fold in the series on TNF [3] (splenic DCs from AhR−/− mice, heat-killed S. typhimurium); 2 fold in the series with TNF [3] (splenic DCs from WT mice, heat-killed S. typhimurium); “marked inhibition” with TNF [4] (splenic macrophages from WT or AhR-KO mice, LPS, HK-STM or CpG 6 hours). Besides, the “Treg induction by supernatant of conditioned BMDCs relative to solvent control DCs” value in the series with naïve CD4+CD25− T cells is “No significant induction of Tregs”. The average colon length in the series on DSS colitis was about 6 cm. Also, the “inhibition of TNF production compared to solvent controls” value in the series on TNF [4] (splenic macrophages, LPS or heat-killed S. typhimurium) is 75%. In addition, the “IL-6 induced pSTAT3 expression, CD4+ DCs” value with Stat3 is listed as “↓↓”. The “IL-6 induced pSTAT3 expression, CD4− DCs” value with Stat3 was “↓↓”. The “cytotoxicity in DCs” value in the series on DCs was “did not induce cytotoxicity”.

Values taken from patent US11612586B2, “Indole regulation of antigen presenting cells” (THE TEXAS A&M UNIVERSITY SYSTEM, priority 2016, dated 2023).
